Assay results from patent publication US6407130B1, “Carboxamide-substituted benzimidazoles having tryptase-inhibiting activity” (Boehringer Ingelheim Pharma KG, priority 1999, dated 2002).
Where a name gives a salt, the structure may show the parent alone.

Target: T1, rh beta tryptase (Homo sapiens, UniProt Q15661)
T1 construct: purchased Promega
Test: tryptase inhibition test (cleavage of N-p-tosyl-Gly-Pro-Lys-para-nitroaniline, p-nitroaniline measured at 405 nm)
Format: biochemical
Details: Tris HCl buffer pH 7.4 with calcium and heparin; substrate 0.6 mM; 5 minutes' pre-incubation, 5 minutes incubation at 37° C.
Protocol: The compounds according to the invention are characterised by their tryptase-inhibiting activity. This ability to inhibit tryptase was investigated using the test described as follows. The measurement is carried out in Tris HCl buffer (100 mM), which additionally contains calcium (5 mM) and heparin ([…]), at pH 7.4. The standard used is rh beta tryptase which may be obtained commercially from Promega, for example. The substrate used is N-p-tosyl-Gly-Pro-Lys-para-nitroaniline in a concentration of 0.6 mM. The substrate is digested with tryptase to form p-nitroaniline which can be measured at 405 nm. Usually, an incubation period of 5 minutes and an incubation temperature of 37° C. are chosen. The enzyme activity used is 0.91 U/ml. The measurements are carried out in an Autoanalyser (Cobas Bio) made by Hofmann LaRoche. The potential inhibitory substances are used in concentrations of 10 μM in the screening, the inhibition of the tryptase being given in percent. The IC50 is determined at over 70% inhibition (concentration at which 50% of the enzyme activity is inhibited). After 5 minutes' pre-incubation of the potential inhibitory substances, the substrate is added to start the reaction, the formation of p-nitroaniline being taken as a measurement of the enzyme activity after 5 minutes, after testing the linearity.

T1 sequence (Q15661 31-275): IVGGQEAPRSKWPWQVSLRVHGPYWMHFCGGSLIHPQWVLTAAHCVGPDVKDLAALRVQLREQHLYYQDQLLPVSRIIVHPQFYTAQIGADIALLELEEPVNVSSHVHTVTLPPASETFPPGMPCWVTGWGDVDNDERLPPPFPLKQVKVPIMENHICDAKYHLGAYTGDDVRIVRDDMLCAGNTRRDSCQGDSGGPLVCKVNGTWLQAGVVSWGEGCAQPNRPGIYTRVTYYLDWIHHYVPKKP

Row | SMILES | IC50 [nM]
1 | Cn1c(CCc2ccc(C(=N)N)cc2)nc2cc(N(Cc3cccc4ccccc34)C(=O)CCCN)ccc21 [Example 20, N-{2-[2-(4-Amidinophenyl)-ethyl]-1-methyl-benzimidazol-5-yl}-N-- naphthylmethyl-[4-amino-butanoic acid amide]-dihydrochloride] | 39
2 | CCOC(=O)C1CCN(CC(=O)N(Cc2cccc3ccccc23)c2ccc3c(c2)nc(CCc2ccc(C(=N)N)cc2)n3C)CC1 [Example 71, N-{2-[2-(4-Amidinophenyl)-ethyl]-1-methyl-benzimidazol-5-yl}-N-( - naphthylmethyl)-[2-(4-ethylcarboxylate-4-piperidin-1-yl)-acetamide]-dihydrochloride] | 15.9
3 | CCN(CC)CC(=O)N(Cc1cccc2ccccc12)c1ccc2c(c1)nc(CCc1ccc(C(=N)N)cc1)n2C [Example 66, N-{2-[2-(4-Amidinophenyl)-ethyl]-1-methyl-benzimidazol-5-yl}-N-( - naphthylmethyl)-[2-diethylaminoacetamide]-dihydrochloride] | 27
4 | Cn1c(CCc2ccc(C(=N)N)cc2)nc2cc(N(Cc3cccc4ccccc34)C(=O)CCc3ccccn3)ccc21 [Example 68, N-{2-[2-(4-Amidinophenyl)-ethyl]-1-methyl-benzimidazol-5-yl}-N-( - naphthylmethyl)-[3-(pyridin-2-yl)-propionamide]-hydrochloride] | 38
5 | CN(C)CCN(C)CC(=O)N(Cc1cccc2ccccc12)c1ccc2c(c1)nc(CCc1ccc(C(=N)N)cc1)n2C [Example 41, N-{2-[2-(4-Amidinophenyl)-ethyl]-1-methyl-benzimidazol-5-yl}-N-(α-naphthylmethyl)-[2-(N-(2-dimethylaminoethyl)-N-methylamino)-acetamide]-trihydrochloride] | 18
6 | Cn1c(CCc2ccc(C(=N)N)cc2)nc2cc(N(Cc3ccc4ccccc4c3)C(=O)CNCc3ccc([N+](=O)[O-])cc3)ccc21 [Example 53, N-{2-[2-(4-Amidinophenyl)-ethyl]-1-methyl-benzimidazol-5-yl}-N-(β-naphthylmethyl)-[2-(4-nitrobenzylamino)-acetamide]-hydrochloride] | 92
7 | COc1ccccc1N1CCN(CC(=O)N(Cc2cccc3ccccc23)c2ccc3c(c2)nc(CCc2ccc(C(=N)N)cc2)n3C)CC1 [Example 58, N-{2-[2-(4-Amidinophenyl)-ethyl]-1-methyl-benzimidazol-5-yl}-N-( - naphthylmethyl)-[2-(1-(2-methoxyphenyl)-piperazin-4-yl)-acetamide]-dihydrochloride] | 19
8 | Cn1c(CCc2ccc(C(=N)N)cc2)nc2cc(NC(=O)C(N)Cc3ccc(C(=N)N)cc3)ccc21 (centres unmarked) [Example 4, N-{2-[2-(4-Amidinophenyl)-ethyl]-1-methyl-benzimidazol-5-yl}-[2-amino-3-(p-amidinophenyl)-propionic Acid Amide]-trihydrochloride] | 55
9 | Cn1c(CCc2ccc(C(=N)N)cc2)nc2cc(N(Cc3cccc4ccccc34)C(=O)CCCNC(=N)N)ccc21 [Example 30, N-{2-[2-(4-Amidinophenyl)-ethyl]-1-methyl-benzimidazol-5-yl}-N-( - naphthylmethyl)-[4-guanidino-butanoic acid amide]-dihydrochloride] | 32
10 | Cn1c(CCc2ccc(C(=N)N)cc2)nc2cc(N(Cc3cccc4ccccc34)C(=O)CCC3CCN(C(c4ccccc4)c4ccccc4)CC3)ccc21 [Example 64, N-{2-[2-(4-Amidinophenyl)-ethyl]-1-methyl-benzimidazol-5-yl}-N-( - naphthylmethyl)-[3-(1-diphenylmethyl-piperidin-4-yl)-propionamide]-trihydrochloride] | 25
11 | CN(CC(=O)N(Cc1cccc2ccccc12)c1ccc2c(c1)nc(CCc1ccc(C(=N)N)cc1)n2C)Cc1ccc(N2CCCC2)cc1 [Example 83, N-{2-[2-(4-Amidinophenyl)-ethyl]-1-methyl-benzimidazol-5-yl}-N-( - naphthylmethyl)-[2-(N-(4-pyrrolidin-1-ylbenzyl)-N-methylamino)-acetamide]-dihydrochloride] | 7.6
12 | CN(C)CCCCC(=O)N(Cc1ccccc1)c1ccc2c(c1)nc(CCc1ccc(C(=N)N)cc1)n2C [Example 26, N-{2-[2-(4-Amidinophenyl)-ethyl]-1-methyl-benzimidazol-5-yl}-N-benzyl-[5-dimethylamino-pentanoic acid amide]-dihydrochloride] | 53
13 | Cn1c(CCc2ccc(C(=N)N)cc2)nc2cc(N(Cc3ccccc3)C(=O)CCc3ccc(C(=N)N)cc3)ccc21 [Example 12, N-{2-[2-(4-Amidinophenyl)-ethyl]-1-methyl-benzimidazol-5-yl}-N-benzyl-[3-(4-amidinophenyl)-propionamide]-dihydrochloride] | 30
14 | Cn1c(CCc2ccc(C(=N)N)cc2)nc2cc(N(Cc3ccccc3)C(=O)CCCNC(=N)N)ccc21 [Example 39, N-{2-[2-(4-Amidinophenyl)-ethyl]-1-methyl-benzimidazol-5-yl}-N-benzyl-[4-guanidino-butanoic acid amide]-dihydrochloride] | 77
15 | Cn1c(CCc2ccc(C(=N)N)cc2)nc2cc(N(Cc3cccc4ccccc34)C(=O)Cc3cccc4ccccc34)ccc21 [Example 80, N-{2-[2-(4-Amidinophenyl)-ethyl]-1-methyl-benzimidazol-5-yl}-N-( - naphthylmethyl)-[2-( -naphthyl)-acetamide]-hydrochloride] | 30.1
16 | Cn1c(CCc2ccc(C(=N)N)cc2)nc2cc(N(Cc3cccc4ccccc34)C(=O)CN3CCCCC3)ccc21 [Example 81, N-{2-[2-(4-Amidinophenyl)-ethyl]-1-methyl-benzimidazol-5-yl}-N-( - naphthylmethyl)-[2-(piperidin-1-yl)-acetamide]-dihydrochloride] | 63.1
17 | CN(C(=O)CCc1ccc(C(=N)N)cc1)c1ccc2c(c1)nc(CCc1ccc(C(=N)N)cc1)n2C [Example 1, N-{2-[2-(4-Amidinophenyl)-ethyl]-1-methyl-benzimidazol-5-yl}-N-methyl-[3-(4-amidinophenyl)-propionamide]dihydrochloride] | 64

The remaining lines, values ahead:

Row | IC50 [nM] | SMILES
18 | 29 | Cn1c(CCc2ccc(C(=N)N)cc2)nc2cc(N(Cc3cccc4ccccc34)C(=O)CNCc3ccccc3)ccc21 [Example 62, N-{2-[2-(4-Amidinophenyl)-ethyl]-1-methyl-benzimidazol-5-yl}-N-( - naphthylmethyl)-[2-(N-benzylamino)-acetamide]-dihydrochloride]
19 | 10 | Cn1c(CCc2ccc(C(=N)N)cc2)nc2cc(N(Cc3cccc4ccccc34)C(=O)CNCc3cccc(N)c3)ccc21 [Example 28, N-{2-[2-(4-Amidinophenyl)-ethyl]-1-methyl-benzimidazol-5-yl}-N-( - naphthylmethy)-[3-aminobenzylamino-acetamide]-trihydrochloride]
20 | 25 | Cc1ccc(CNCC(=O)N(Cc2cccc3ccccc23)c2ccc3c(c2)nc(CCc2ccc(C(=N)N)cc2)n3C)cc1 [Example 60, N-{2-[2-(4-Amidinophenyl)-ethyl]-1-methyl-benzimidazol-5-yl}-N-(- naphthylmethyl)-[2-(4-methylbenzylamino)-acetamide]-dihydrochloride]
21 | 12 | CN(CC(=O)N(Cc1cccc2ccccc12)c1ccc2c(c1)nc(CCc1ccc(C(=N)N)cc1)n2C)Cc1cccc(C(=N)N)c1 [Example 18, N-{2-[2-(4-Amidinophenyl)-ethyl-1-methyl-benzimidazol-5-yl}-N-(- naphthylmethylamino)-N-methyl-N-[3-amidinobenzyl]-acetamide-trihydrochloride]
22 | 13 | Cn1c(CCc2ccc(C(=N)N)cc2)nc2cc(N(Cc3cccc4ccccc34)C(=O)CNCc3ccccc3[N+](=O)[O-])ccc21 [Example 49, N-{2-[2-(4-Amidinophenyl)-ethyl]-1-methyl-benzimidazol-5-yl}-N-( - naphthylmethyl)-[2-(2-nitrobenzylamino)-acctamide]-dihydrochloride]
23 | 12 | Cn1c(CCc2ccc(C(=N)N)cc2)nc2cc(N(Cc3cccc4ccccc34)C(=O)CNCc3ccc(O)cc3)ccc21 [Example 52, N-{2-[2-(4-Amidinophenyl)-ethyl]-1-methyl-benzimidazol-5-yl}-N-( - naphthylmethyl)-[2-(4-hydroxybenzylamino)-acetamide]-dihydrochloride]
24 | 12 | Cn1c(CCc2ccc(C(=N)N)cc2)nc2cc(N(Cc3cccc4ccccc34)C(=O)CCCc3ccc(N)cc3)ccc21 [Example 47, N-{2-[2-(4-Amidinophenyl)-ethyl]-1-methyl-benzimidazol-5-yl}-N-( - naphthylmethyl)-[4-(4-aminophenyl)-butyroamide]-dihydrochloride]
25 | 16 | Cn1c(CCc2ccc(C(=N)N)cc2)nc2cc(N(Cc3cccc4ccccc34)C(=O)CNCc3cccc(C(=N)N)c3)ccc21 [Example 8, N-{2-[2-(4-Amidinophenyl)-ethyl]-1-methylbenzimidazol-5-yl}-N-(α-naphthylmethyl)-[3-amidinobenzylaminoacetamide]-trihydrochloride]
26 | 22 | CN(C)CCNCC(=O)N(Cc1cccc2ccccc12)c1ccc2c(c1)nc(CCc1ccc(C(=N)N)cc1)n2C [Example 76]
